Measurements from patent US9610236B2, “Cosmetic use of Queuine” (AMABIOTICS, priority 2013, dated 2017).
“Also recorded” adds a separate entry of the source.

Experiments:
Type in all cases: cell-based
[1] = tested on: HDFa, adult human dermal fibroblasts; assay: Cell proliferation, BrdU assay; conditions: for Mean ODs (BrdU cell proliferation): OD 450 nm
Method: (§1) The stock solution of queuine was prepared with 15 mg/ml methanol and the dilutions were obtained in DMEM (Dulbecco's Modified […]) in the presence of variable concentrations of foetal calf serum (FCS) (DMEM+2.5% FCS+antibiotics (penicillin/streptomycin)+glutamine): depleted medium with 2.5% FCS for the viability, proliferation and cell migration experiments.
This first assay allowed fine-tuning of the applied concentration range. The dilution range for the assay of cell proliferation kinetics was as follows:
(§2) Cell type: HDFa, adult human dermal fibroblasts, person, used between passage 4 and passage 6.
(§3) The adult HDFs used were seeded to a proportion of 5×10^3 cells/well in 96-well plates (passage 4) in 200 μl culture medium without FCS (supplemented DMEM+0% FCS). 24 h after seeding, the culture medium was changed and the different dilutions of the product or its carrier (methanol) were added at 200 μl per well, with 3 wells per culture condition.
Cell proliferation was evaluated using an assay of ELISA type (BrdU assay, Bromodeoxyuridine) after 1, 2 and 3 days of culture.
BrdU is a synthetic nucleoside and an analogue of thymidine, which can be recognised by an anti-BrdU antibody. It is incorporated during DNA replication of the proliferating cells. The anti-BrdU antibody is coupled to an enzyme which, in the presence of its substrate, will degrade the latter. Detection of BrdU is therefore carried out by colorimetric enzymatic assay.
Degradation of the enzyme substrate will stain the supernatant proportional to the amount of incorporated BrdU. Measurement is then performed by read-out of optical density (OD) using a spectrophotometer at a wavelength of 450 nm. The assay was conducted at D1, D2 and D3 (D0 corresponding to the time of addition of the solutions to be assayed).

[2] = tested on: HDFa, adult human dermal fibroblasts; assay: Cell migration into calibrated acellular gap (culture inserts, image comparison); conditions: 24 h
Method: The dilution range prepared for evaluating migration was identical to the range for evaluating kinetics with the exclusion of the 0.3 μg/ml concentration. The adult HDFs used were seeded in the presence of previously sterilised culture inserts which allowed the creation of calibrated acellular regions. 100,000 HDFa in 600 μl and 30,000 cells in 150 μl were respectively added outside and inside the inserts, in DMEM+2.5% FCS. After an incubation time of 5 h at 37° C., the inserts were removed and the wells washed twice with PBS 1× to eliminate every cell which had not adhered. The queuine molecule was then added at 30, 10, 3 or 1 μg/ml in DMEM 2.5% FCS, and an equivalent range of methanol was also carried out, two wells per condition. The wells were photographed at t=0 h and the plates then incubated for 24 h. The cells were fixed with paraformaldehyde before taking photos at 24 h. The images were analysed using ImageJ software, to improve the contrast thereof. All fields were examined and the two most representative of each condition were chosen for each time indication. Analysis was performed by comparison with the control. The adult HDFs were seeded in the presence of previously sterilised culture inserts, to create calibrated acellular regions in a confluent cell mat. The cells tend to fill the gap created by migrating from the edges to close the gap. After 5 h incubation at 37° C., the inserts were removed and the wells washed twice in PBS 1× to eliminate every non-adhering cell. Queuine was then added at 30, 10, 3 or 1 μg/ml in DMEM 2.5% FCS and an equivalent range of methanol was also prepared, two wells per condition. Photos of the wells were taken at t=0 h. The cells were cultured 24 h at 37° C., before being fixed in paraformaldehyde. Photos were taken at t=24 h. The photos were compared with each other to assess the difference in cell migration into the gap between the different assayed conditions.

[3] = tested on: HDFa, adult human dermal fibroblasts; assay: Cytotoxicity / cell viability, MTT assay; conditions: for Mean - blank (cell viability OD) / OD mean values (cell viability) / Mean OD values (cell viability): MTT; for OD mean values (cell viability) / Mean OD values (cell viability): OD 570 nm; for OD mean values (cell viability): DMEM 2.5% FCS
Method: as §1
The dilution range prepared for the toxicity/viability assay was the following:
as §2, §3
Cell proliferation was evaluated using a colorimetric assay (MTT assay) after culture times of 1, 2 and 3 days. This assay is based on reduction of the yellow tetrazolium salt (MTT) [3-(4,5-dimethylthiazol bromide] to a blue-purple formazan product by the mitochondrial NADPH reductases of the cells, provided they are living. The crystals were then dissolved in 100% ethanol—DMSO mixture (v/v). Colouring of the supernatant, proportional to the number of living cells, was measured by optical density (OD) read-out on a spectrophotometer at a wavelength of 570 nm. The assay was conducted at D1, D2 and D3 (D0 corresponding to the time of addition of the solutions to be assayed).
The mean OD values of the triplicates are given on a graph for each kinetic time. Standard deviations are indicated.

Structure (SMILES): Nc1nc2[nH]cc(CN[C@H]3C=C[C@H](O)[C@@H]3O)c2c(=O)[nH]1 [Queuine, 2-amino-5-((((1s,4s,5r)-4,5-dihydroxy-2-cyclopenten-1-yl)amino)methyl)-1,7-dihydro-4h-pyrrolo(2,3-d)pyrimidin-4-one]
- Mean - blank (BrdU OD) ([1]; 0.3 μg/ml, 24 h contact time): 1.181
- Mean ODs (BrdU cell proliferation) ([1]; 0.3 μg/ml, 24 h contact time, DMEM 2.5% FCS): 1.312
- Mean - blank (BrdU OD) ([1]; 0.3 μg/ml, 48 h contact time): 0.677
- Mean ODs (BrdU cell proliferation) ([1]; 0.3 μg/ml, 48 h contact time, shortened substrate incubation): 0.800
- Mean - blank (BrdU OD) ([1]; 0.3 μg/ml, 72 h contact time): 0.416
- Mean ODs (BrdU cell proliferation) ([1]; 0.3 μg/ml, 72 h contact time, shortened substrate incubation): 0.586
- Mean - blank (BrdU OD) ([1]; 1 μg/ml, 24 h contact time): 1.197
- Mean ODs (BrdU cell proliferation) ([1]; 1 μg/ml, 24 h contact time, DMEM 2.5% FCS): 1.328
- Mean - blank (BrdU OD) ([1]; 1 μg/ml, 48 h contact time): 0.803
- Mean ODs (BrdU cell proliferation) ([1]; 1 μg/ml, 48 h contact time, shortened substrate incubation): 0.926
- Mean - blank (BrdU OD) ([1]; 1 μg/ml, 72 h contact time): 0.378
- Mean ODs (BrdU cell proliferation) ([1]; 1 μg/ml, 72 h contact time, shortened substrate incubation): 0.548
- Mean - blank (BrdU OD) ([1]; 3 μg/ml, 24 h contact time): .391
- Mean ODs (BrdU cell proliferation) ([1]; 3 μg/ml, 24 h contact time, DMEM 2.5% FCS): 1.522
- Mean - blank (BrdU OD) ([1]; 3 μg/ml, 48 h contact time): 0.793
- Mean ODs (BrdU cell proliferation) ([1]; 3 μg/ml, 48 h contact time, shortened substrate incubation): 0.915
- Mean - blank (BrdU OD) ([1]; 3 μg/ml, 72 h contact time): 0.511
- Mean ODs (BrdU cell proliferation) ([1]; 3 μg/ml, 72 h contact time, shortened substrate incubation): 0.681
- Mean - blank (BrdU OD) ([1]; 10 μg/ml, 24 h contact time): 1.494
- Mean ODs (BrdU cell proliferation) ([1]; 10 μg/ml, 24 h contact time, DMEM 2.5% FCS): 1.625
- Mean - blank (BrdU OD) ([1]; 10 μg/ml, 48 h contact time): 0.943
- Mean ODs (BrdU cell proliferation) ([1]; 10 μg/ml, 48 h contact time, shortened substrate incubation): 1.066
- Mean - blank (BrdU OD) ([1]; 10 μg/ml, 72 h contact time): 0.538
- Mean ODs (BrdU cell proliferation) ([1]; 10 μg/ml, 72 h contact time, shortened substrate incubation): 0.708
- Mean - blank (BrdU OD) ([1]; 30 μg/ml, 24 h contact time): 1.502
- Mean ODs (BrdU cell proliferation) ([1]; 30 μg/ml, 24 h contact time, DMEM 2.5% FCS): 1.634
- Mean - blank (BrdU OD) ([1]; 30 μg/ml, 48 h contact time): 1.026
- Mean ODs (BrdU cell proliferation) ([1]; 30 μg/ml, 48 h contact time, shortened substrate incubation): 1.149
- Mean - blank (BrdU OD) ([1]; 30 μg/ml, 72 h contact time): 0.787
- Mean ODs (BrdU cell proliferation) ([1]; 30 μg/ml, 72 h contact time, shortened substrate incubation): 0.958
- proliferative effect ([1]; 3, 10 and 30 μg/ml after 72 hours' incubation): a proliferative effect is evidenced
- proliferative effect ([1]; 72 hours, 30 μg/ml): particularly pronounced; also recorded: major proliferative effect
- proliferative effect ([1]; 72 hours, 3 and 10 μg/ml): clear proliferative effect
- proliferative effect compared with the carrier ([1]; short times (24 and 48 hours)): no significant effect
- migration compared with 2.5% FCS control ([2]; 10 μg/ml and 30 μg/ml in 2.5% FCS): better migration than in 2.5% FCS
- effect on migration of the fibroblasts ([2]; 10 μg/ml): has an effect on migration of the fibroblasts; also recorded: has an effect on the migration of adult HDFs
- gap closure (observation of photos) ([2]; 30 μg/ml in 2.5% FCS): the cells of the two edges meet in the centre of the gap
- effect on migration of the fibroblasts ([2]; 30 μg/ml): confirmed
- migration compared with positive 10% FCS control ([2]; 10 and 30 μg/ml): equivalent to that obtained with the positive 10% FCS control
- Mean - blank (cell viability OD) ([3]; 0.1 μg/ml, 24 h contact time): 0.133
- OD mean values (cell viability) ([3]; 0.1 μg/ml, 24 h contact time): 0.228
- Mean - blank (cell viability OD) ([3]; 0.1 μg/ml, 48 h contact time): 0.219
- Mean OD values (cell viability) ([3]; 0.1 μg/ml, 48 h contact time): 0.304
- Mean - blank (cell viability OD) ([3]; 0.1 μg/ml, 72 h contact time): 0.223
- Mean OD values (cell viability) ([3]; 0.1 μg/ml, 72 h contact time): 0.341
- Mean - blank (cell viability OD) ([3]; 1 μg/ml, 24 h contact time): 0.155
- OD mean values (cell viability) ([3]; 1 μg/ml, 24 h contact time): 0.250
- Mean - blank (cell viability OD) ([3]; 1 μg/ml, 48 h contact time): 0.246
- Mean OD values (cell viability) ([3]; 1 μg/ml, 48 h contact time): 0.331
- Mean - blank (cell viability OD) ([3]; 1 μg/ml, 72 h contact time): 0.244
- Mean OD values (cell viability) ([3]; 1 μg/ml, 72 h contact time): 0.362
- Mean - blank (cell viability OD) ([3]; 10 μg/ml, 24 h contact time): 0.151
- OD mean values (cell viability) ([3]; 10 μg/ml, 24 h contact time): 0.246
- Mean - blank (cell viability OD) ([3]; 10 μg/ml, 48 h contact time): 0.243
- Mean OD values (cell viability) ([3]; 10 μg/ml, 48 h contact time): 0.328
- Mean - blank (cell viability OD) ([3]; 10 μg/ml, 72 h contact time): 0.277
- Mean OD values (cell viability) ([3]; 10 μg/ml, 72 h contact time): 0.395
- Mean - blank (cell viability OD) ([3]; 100 μg/ml, 24 h contact time): 0.138
- OD mean values (cell viability) ([3]; 100 μg/ml, 24 h contact time): 0.233
- Mean - blank (cell viability OD) ([3]; 100 μg/ml, 48 h contact time): 0.188
- Mean OD values (cell viability) ([3]; 100 μg/ml, 48 h contact time): 0.273
- Mean - blank (cell viability OD) ([3]; 100 μg/ml, 72 h contact time): 0.154
- Mean OD values (cell viability) ([3]; 100 μg/ml, 72 h contact time): 0.272
- cytotoxic effect ([3]; 100 μg/ml, at 48 h): exhibited a cytotoxic effect
- cytotoxic effect ([3]; concentrations below 100 μg/ml): do not exhibit any cytotoxic effect; also recorded: did not display any cytotoxic effect
